From patent US9475808B2, “Inhibitor compounds of phosphodiesterase type 10A” (AbbVie Deutschland GmbH & Co. KG, priority 2013, dated 2016)

Key:
PDE10A = PDE10A (UniProt Q9Y233); assay: Measurement of PDE activity (HTRF cAMP assay, recombinant enzyme); assay type: biochemical; details: 20 nM cyclic nucleotide substrate, 60 minutes at 29 C
Protocol: The recombinant PDE proteins are used in in vitro enzymatic reaction for measurement of PDE activity. These recombinant proteins, including PDE10A (human, rat and mouse PDE10) and isoforms of PDEs 1, 3, 4, and 5, were purchased from commercial vendor BPS Bioscience. The enzymatic activity of PDEs was determined by cAMP measurement kit from CisBio (IBA) using HTRF technology.
The PDE enzymatic reaction was carried out in assay buffer (20 mM Tris-HCl pH7.5, 10 mM MgCl2, 0.1% bovine serum albumin) containing enzyme and substrate. The PDE enzymes concentration ranged from 10 pM-250 pM, depending on each enzyme's specific activity. The substrate cyclic nucleotide (cAMP or cGMP) concentration used in the assay was 20 nM for PDE10, and 100 nM for other PDEs. The inhibitory effect of compound was determined by incubating various concentration of inhibitor in the enzymatic assay. Typically, compound was serial diluted in DMSO then further diluted in assay buffer. Next, the compound at varying concentration was mixed with PDE enzyme. The reaction was initiated by addition of cyclic nucleotide substrate, and incubated for 60 minutes at 29 C. The reaction was stopped by addition of lysis buffer from assay kit. The cAMP-d2 and anti-cAMP cryptate in the lysis buffer detected the level of cAMP left from the PDE hydrolysis reaction. The PDE activity is reversely correlated with the amount of cAMP left in the reaction and can be converted to the percent activity of an uninhibited control (100%). Thus, IC50 value of inhibitor can be obtained by plotting inhibitor concentration against PDE activity at that concentration.

[1] = Determination of the microsomal half-life / microsomal clearance, rat liver microsomes; details: 0.5 μM test substance, 0.25 mg microsomal protein/ml, pH 7.4, 37° C., NADPH
Protocol: (§1) The test substances were incubated in a concentration of 0.5 μM as follows:
(§2) 0.5 μM test substance are preincubated together with liver microsomes from different species (from rat, human or other species) (0.25 mg of microsomal protein/ml) in 0.05 M potassium phosphate buffer of pH 7.4 in microtiter plates at 37° C. for 5 min. The reaction is started by adding NADPH (1 mg/mL). After 0, 5, 10, 15, 20 and 30 min, 50 μl aliquots are removed, and the reaction is immediately stopped and cooled with the same volume of acetonitrile. The samples are frozen until analyzed. The remaining concentration of undegraded test substance is determined by MSMS. The half-life (T½) is determined from the gradient of the signal of test substance/unit time plot, it being possible to calculate the half-life of the test substance, assuming first order kinetics, from the decrease in the concentration of the compound with time. The microsomal clearance (mCl) is calculated from mCl=ln 2/T½/(content of microsomal protein in mg/ml)×1000 [ml/min/mg]

[2] = Determination of the microsomal half-life / microsomal clearance, human liver microsomes; details: 0.5 μM test substance, 0.25 mg microsomal protein/ml, pH 7.4, 37° C., NADPH
Protocol: as §1, §2

IC50 (PDE10A) [nM] | Rat mCl [1] | Human mCl [2] | Compound
> 500 |  |  | 2-(2-Imidazo[1,2-a]pyridin-2-yl-ethyl)-5-methyl-7-morpholin-4-yl-3,5-dihydro-2H-pyrrolo[3,4-c]pyridine-1,6-dione [Example 23]
> 500 |  |  | 5-Methyl-7-morpholin-4-yl-2-(2-[1,2,4]triazolo[1,5-a]pyridin-2-yl-ethyl)-5H-pyrrolo[3,4-c]pyridine-1,3,6-trione [Example 5]
< 100 | ++ (++: <100 μl min^−1 mg^−1) | ++ (++: <100 μl min^−1 mg^−1) | Cn1cc2c(c(N3CCOCC3)c1=O)C(=O)N(CCc1ccc3ccccc3n1)C2=O [Example 1, 5-Methyl-7-morpholin-4-yl-2-(2-quinolin-2-yl-ethyl)-5H-pyrrolo[3,4-c]pyridine-1,3,6-trione]
> 500 | ++ (++: <100 μl min^−1 mg^−1) | ++ (++: <100 μl min^−1 mg^−1) | Cn1cc2c(c(N3CCOCC3)c1=O)CN(CCc1ccc3ccccc3n1)C2=O [Example 6, 5-Methyl-7-morpholin-4-yl-2-(2-quinolin-2-yl-ethyl)-1,2-dihydro-5H-pyrrolo[3,4-c]pyridine-3,6-dione]
> 500 | +++ (+++ <10 μl min^−1 mg^−1) | ++ (++: <100 μl min^−1 mg^−1) | CN1CCN(c2c3c(cn(C)c2=O)C(=O)N(CCc2ccc4ccccc4n2)C3)CC1 [Example 7, 5-Methyl-7-(4-methyl-piperazin-1-yl)-2-(2-quinolin-2-yl-ethyl)-1,2-dihydro-5H-pyrrolo[3,4-c]pyridine-3,6-dione]
> 500 |  |  | Cn1cc2c(c(-c3ccncc3)c1=O)CN(CCc1ccc3ccccc3n1)C2=O [Example 8, 5-Methyl-7-pyridin-4-yl-2-(2-quinolin-2-yl-ethyl)-1,2-dihydro-5H-pyrrolo[3,4-c]pyridine-3,6-dione]
< 100 | ++ (++: <100 μl min^−1 mg^−1) | ++ (++: <100 μl min^−1 mg^−1) | Cn1cc2c(c(N3CCOCC3)c1=O)C(=O)N(CCc1ccc3ccccc3n1)C2 [Example 9, 5-Methyl-7-morpholin-4-yl-2-(2-quinolin-2-yl-ethyl)-3,5-dihydro-2H-pyrrolo[3,4-c]pyridine-1,6-dione]
 | +++ (+++ <10 μl min^−1 mg^−1) | +++ (+++ <10 μl min^−1 mg^−1) | CN1CCN(c2c3c(cn(C)c2=O)CN(CCc2ccc4ccccc4n2)C3=O)CC1 [Example 10, 5-Methyl-7-(4-methyl-piperazin-1-yl)-2-(2-quinolin-2-yl-ethyl)-3,5-dihydro-2H-pyrrolo[3,4-c]pyridine-1,6-dione]
100 to 200 |  |  | Cn1cc2c(c(-c3ccncc3)c1=O)C(=O)N(CCc1ccc3ccccc3n1)C2 [Example 11, 5-Methyl-7-pyridin-4-yl-2-(2-quinolin-2-yl-ethyl)-3,5-dihydro-2H-pyrrolo[3,4-c]pyridine-1,6-dione]
100 to 200 | +++ (+++ <10 μl min^−1 mg^−1) | ++ (++: <100 μl min^−1 mg^−1) | Cn1cc2c(c(N3CCS(=O)(=O)CC3)c1=O)C(=O)N(CCc1ccc3ccccc3n1)C2 [Example 12, 5-Methyl-7-(1,1-dioxo-thiomorpholin-4-yl)-2-(2-quinolin-2-yl-ethyl)-3,5-dihydro-2H-pyrrolo[3,4-c]pyridine-1,6-dione]
> 500 |  |  | Cn1nccc1-c1c2c(cn(C)c1=O)CN(CCc1ccc3ccccc3n1)C2=O [Example 30, 5-Methyl-7-(2-methyl-2H-pyrazol-3-yl)-2-(2-quinolin-2-yl-ethyl)-3,5-dihydro-2H-pyrrolo[3,4-c]pyridine-1,6-dione]
< 100 |  |  | Cn1cc2c(c(N3CCOCC3)c1=O)C(=O)N(CCc1ccc3ccccc3n1)C2(F)F [Example 35, 3,3-Difluoro-5-methyl-7-morpholin-4-yl-2-(2-quinolin-2-yl-ethyl)-3,5-dihydro-2H-pyrrolo[3,4-c]pyridine-1,6-dione]
